Experiments:
B16BL6 tumour = assay: PET imaging in B16BL6 tumour bearing mice; assay type: in vivo, C57BL/6J mice; settings: 1 h p.i., day-15
Experimental: (§1) All our studies were performed in accordance with French and European Economic Community (86-609, EEC) guidelines for care of laboratory animals. Protocols were performed under the authorization of the French Direction des Services Veterinaires (authorization no. CE 86-12). Male C57BL/6J mice were originating from Charles River laboratories and maintained at 21° C. with a 12 h/12 h light/dark cycle, fed with a breeding diet (diet A04 from Safe, Villemoisson, France) and received water ad libitum. For transplantation B16BL6 cell suspension were grown in a monolayer culture to confluence, after which cells were trypsinized, washed with phosphate buffer saline (PBS) and they were resuspended in PBS. Mice were anesthetized by isoflurane (4% for induction and 2±0.5% for maintaining in oxygen flux) inhalation. The primary tumour model was induced by subcutaneous injection of 3×10^5 melanoma B16B16 cells in 0.1 mL on the right shoulder of mice.
Whole-body PET scans were acquired 1 h after bolus injection of […] of the appropriate [^18F]-compound in a volume of 0.15 ml via the tail vein. Mice were anesthetized by intraperitoneal (i.p.) administration (200 μL/mouse) of a ketamine-xylazine mixture in saline: ketamine (100 mg/kg, Imalgene™, Rhône Mérieux, Lyon, France) and xylazine (10 mg/kg, Rompun™, Bayer, France) before radiotracer injection and imaged by using a small-animal PET device, eXplore Vista microPET instrument (GE Healthcare). PET images were acquired by using static mode during 20 min. The acquired data were reconstructed using the 2-Dimensional ordered-subsets expectation maximization (OSEM) algorithm and corrected from decay, scatter and randoms. No corrections were applied for partial volume or attenuation.
Regional tracer uptake was quantified by standard region-of-interest (ROI) analysis with eXplore Vista software package. A manual 2D-ROI was drawn around the tumour in each slice where tumour was visible, and on several subsequent coronal planes containing muscle tissue at the forelimb. Results are expressed by percentage of injected dose per gram of tissue (% ID/g).
PET imaging was performed 1 h post injection of tracers in B16BL6 tumour bearing mice at day-15 after tumours cell inoculation.

[1] = radiochemical stability of the radiotracer after preparation; assay type: physicochemical
[2] = test system: B16 murine melanoma tumours; assay: Ex vivo biodistribution of [18F]-labelled compounds; assay type: in vivo, C57BL/6J mice
Experimental: as §1
Ex vivo biodistribution studies: An ex vivo biodistribution study was performed for better comparison of [^18F](1) and [^18F](5). Experimentations were undertaken at day-10 or day-14 after cell inoculation (n=3-6/group). […] Tumours and major organs and tissues were promptly excised, harvested, weighted and their radioactivity counted using a calibrated γ-counter with a 400 to 600 keV energy window. After radioactive decay correction, results were expressed as percentage of injected dose per gram of tissue (% ID/g).

[3] = octanol/water (PBS buffer) partition coefficient (log D); assay type: physicochemical
melanoma B16F0 tumours = assay: In vivo scintigraphic imaging of [125I]-labelled compounds; design: species or system C57BL/6J mice; settings: planar scintigraphy
Excerpt: C57BL/6J male mice (6-8 weeks old) were obtained from Charles River (l'Arbresle, France) and the B 16F0 syngenic melanoma from ATCC (no. CRL-6322). Primary melanoma model was induced by subcutaneous injection of B 16F0 murine melanoma cells in C57BL/6J mice. B 16F0 melanoma cell cultures were maintained as monolayers in Dulbecco's Modified Eagle's Medium (DMEM)/Glutamax (Invitrogen, Cergy Pontoise, France) supplemented with 10% fetal calf serum (Sigma, Saint Quentin Fallavier, France), 1% vitamins (Invitrogen, Cergy-Pontoise, France), 1 mM sodium pyruvate (Invitrogen), 1% non essential amino acids (Invitrogen), and 4 μg/mL of gentamycin base (Invitrogen). Cells were grown at 37° C. in a humidified incubator containing 5% CO2. For transplantation, cells in exponential growth phase were trypsinized, washed with phosphate buffer saline (PBS), and resuspended in PBS. C57BL/6J mice anesthetized by isoflurane (2%) inhalation were inoculated with 3×10^5 melanoma B16F0 cells in 0.1 mL of PBS by subcutaneous injection on the right flank.
In vivo scintigraphic imaging protocol was submitted and approved by the french regional ethical animal use committee (CEMEA, Auvergne, authorization no. CE18-09, 2010). Scintigraphic imaging of radioiodinated compounds in mice was performed using a gamma camera dedicated to small animal imaging (γIMAGER, Biospace Mesures, Paris, France). This camera consists of a R 3292 Hamamatsu position-sensitive photomultiplier having a continuous 4 mm thick×120 mm diameter CsI (Na) crystal leading to a 10 cm field of view. For ^125I imaging, the camera was equipped with parallel-hole collimator 1.8/0.2/20 (hole diameter/septum thickness/height in mm). All the acquisitions were performed with a 15% window centered on the 35 keV peak of ^125I.
On day 14 after tumour implantation, each [^125I]-labelled compound was administered intravenously via the tail vein with 3.7 MBq/mouse (range 3-8 animals/compounds). The injected activity to each mouse was also determined from scintigraphic imaging of the syringe before and after the injection of the radiotracer. At different times after administration (1 h, 3 h, 6 h, 24 h, 72 h, 5 d, 7 d, 10 d and 14 d), mice were anaesthetized by i.p. administration (200 μL/mouse) of a ketamine-xylazine mixture in saline: ketamine (100 mg/kg, Imalgene, Rhône Merieux, Lyon, France) and xylazine (10 mg/kg, Rompun, Bayer, France). A 10 min duration image was acquired on anesthetized mice placed in prone position over the collimator of the camera. Reproducibility in animal positioning for the serial images was achieved using a graduated reference grid.
Quantitative analysis of scintigraphic scans was performed using the GAMMAVISION+ software (Biospace Mesures, Paris, France). Regions of interest (ROIs) were manually drawn around the tumour, the whole body area, the bladder, the eyes, the submaxillary and thyroid glands and the controlateral muscle which was chosen as background. For each ROI, total activity, min and max pixel values, ROI size (in mm^2), average activity per mm^2 and standard deviation were obtained. These values were normalized to the injected activity. For the tumour, the activity was also normalized to the tumour weight as previously described (Miot-Noirault, Cancer biotherapy & radiopharmaceuticals, 24 (2009) 629-636) and expressed as percentage of injected dose per gram of tumour (% ID/g).

## CCN(CCNC(=O)c1cnc2cc(I)ccc2n1)CCOCCOCCOCCOCCOCCOCCOCC[18F] [[^18F](5)]
B16BL6 tumour
  eyes uptake: 5.53±1.35 % ID/g
  muscles activity: 1.01±0.09 % ID/g
  tumour uptake: 6.63±1.64 % ID/g
  tumour/muscle ratio: 6.62±1.90
[1]
  radiochemically stable at room temperature after preparation: at least 6 h
[2]; 1 h p.i.
  % ID/g (tumour): 9.81 ± 2.96 % ID/g
  % ID/g Blood: 1.15 ± 0.19 % ID/g
  % ID/g Bones: 1.82±0.55 % ID/g
  % ID/g Brain: 1.03 ± 0.18 % ID/g
  % ID/g Ceacum: 6.37 ± 4.84 % ID/g
  % ID/g Colon + faeces: 7.39 ± 1.36 % ID/g
  % ID/g Eyes: 12.24 ± 4.39 % ID/g
  % ID/g Heart: 1.58 ± 0.24 % ID/g
  % ID/g Kidney: 3.60 ± 1.74 % ID/g
  % ID/g Liver: 2.02 ± 0.19 % ID/g
  % ID/g Lung: 1.75 ± 0.18 % ID/g
  % ID/g Muscle: 1.07 ± 0.35 % ID/g
  % ID/g Pancreas: 2.63 ± 1.33 % ID/g
  % ID/g Skin: 1.22 ± 0.22 % ID/g
  % ID/g Small intestine: 16.68 ± 7.93 % ID/g
  % ID/g Spleen: 2.35 ± 0.91 % ID/g
  % ID/g Stomach: 5.87 ± 3.32 % ID/g
  TBR Tumour-to-Blood Ratio: 8.29 ± 2.87
  TBoR Tumour-to-Bone Ratio: 5.35 ± 0.82
  TMR Tumour-to-Muscle Ratio: 9.48 ± 2.41
[2]; 2 h p.i.
  % ID/g (tumour): 5.81 ± 1.37 % ID/g
  % ID/g Blood: 1.37 ± 0.30 % ID/g
  % ID/g Bones: 2.13 ± 0.19 % ID/g
  % ID/g Brain: 1.03 ± 0.10 % ID/g
  % ID/g Ceacum: 12.10 ± 10.31 % ID/g
  % ID/g Colon + faeces: 8.14 ± 1.78 % ID/g
  % ID/g Eyes: 12.10 ± 1.85 % ID/g
  % ID/g Heart: 1.70 ± 0.24 % ID/g
  % ID/g Kidney: 3.52 ± 1.02 % ID/g
  % ID/g Liver: 2.31 ± 0.64 % ID/g
  % ID/g Lung: 1.72 ± 0.72 % ID/g
  % ID/g Muscle: 1.04 ± 0.24 % ID/g
  % ID/g Pancreas: 1.56 ± 0.38 % ID/g
  % ID/g Skin: 0.94 ± 0.51 % ID/g
  % ID/g Small intestine: 19.51 ± 5.43 % ID/g
  % ID/g Spleen: 2.38 ± 0.87 % ID/g
  % ID/g Stomach: 7.35 ± 4.79 % ID/g
  TBR Tumour-to-Blood Ratio: 4.01 ± 1.12
  TBoR Tumour-to-Bone Ratio: 2.75 ± 0.80
  TMR Tumour-to-Muscle Ratio: 5.75 ± 1.45
[2]; 3 h p.i.
  % ID/g (tumour): 6.76±1.35 % ID/g
  % ID/g Blood: 0.99 ± 0.20 % ID/g
  % ID/g Bones: 3.61 ± 1.12 % ID/g
  % ID/g Brain: 1.72 ± 0.67 % ID/g
  % ID/g Ceacum: 29.31 ± 17.94 % ID/g
  % ID/g Colon + faeces: 12.63 ± 7.83 % ID/g
  % ID/g Eyes: 13.43 ± 2.17 % ID/g
  % ID/g Heart: 3.00 ± 1.12 % ID/g
  % ID/g Kidney: 2.60 ± 1.69 % ID/g
  % ID/g Liver: 2.60 ± 1.37 % ID/g
  % ID/g Lung: 2.37 ± 0.67 % ID/g
  % ID/g Muscle: 1.11 ± 0.34 % ID/g
  % ID/g Pancreas: 1.81 ± 0.66 % ID/g
  % ID/g Skin: 1.47 ± 0.49 % ID/g
  % ID/g Small intestine: 18.62 ± 13.65 % ID/g
  % ID/g Spleen: 2.35 ± 0.98 % ID/g
  % ID/g Stomach: 5.39 ± 3.13 % ID/g
  TBR Tumour-to-Blood Ratio: 5.27±0.20
  TBoR Tumour-to-Bone Ratio: 2.16 ± 1.15
  TMR Tumour-to-Muscle Ratio: 6.64±2.69
  in vivo defluorination: Partial in vivo defluorinations
[3]
  octanol/water (PBS buffer) partition coefficient (log D): 0.95±0.02

## CCN(CCNC(=O)c1cnc2cc(I)ccc2n1)Cc1cn(CC[18F])nn1 [[^18F](7)]
B16BL6 tumour
  muscles activity: 0.84 % ID/g
  tumour uptake: 14.55 % ID/g
  tumour/muscle ratio: 17.41
[1]
  radiochemically stable at room temperature after preparation: at least 6 h
[3]
  octanol/water (PBS buffer) partition coefficient (log D): 2.22±0.03

## CCN(CCNC(=O)c1cnc2cc([125I])ccc2n1)Cc1cn(CCF)nn1 [[^125I]7]
Melanoma B16F0 tumours; 1 h after i.v. injection
  % ID/g (tumour): 13.0 ± 1.5 % ID/g
Melanoma B16F0 tumours; 3 h after i.v. injection
  % ID/g (tumour): 14.5 ± 0.1 % ID/g
Melanoma B16F0 tumours; 6 h after i.v. injection
  % ID/g (tumour): 15.9 ± 1.7 % ID/g
Melanoma B16F0 tumours; 24 h after i.v. injection
  % ID/g (tumour): 15.6 ± 3.4 % ID/g
Melanoma B16F0 tumours; 72 h after i.v. injection
  % ID/g (tumour): 11.0 ± 0.7 % ID/g
Melanoma B16F0 tumours; 5 d after i.v. injection
  % ID/g (tumour): 8.6 ± 0.4 % ID/g
Melanoma B16F0 tumours; 7 d after i.v. injection
  % ID/g (tumour): 5.3 ± 0.8 % ID/g
Melanoma B16F0 tumours; 10 d after i.v. injection
  % ID/g (tumour): 3.7 ± 0.3 % ID/g
Melanoma B16F0 tumours; 14 d after i.v. injection
  % ID/g (tumour): 1.8 ± 0.4 % ID/g

## CCN(CCNC(=O)c1cnc2cc([125I])ccc2n1)CCOCCOCCOCCOCCOCCOCCOCCF [[^125I]5]
Melanoma B16F0 tumours; 1 h after i.v. injection
  % ID/g (tumour): 6.8 ± 1.8 % ID/g
Melanoma B16F0 tumours; 3 h after i.v. injection
  % ID/g (tumour): 7.8 ± 1.5 % ID/g
Melanoma B16F0 tumours; 6 h after i.v. injection
  % ID/g (tumour): 7.2 ± 1.1 % ID/g
Melanoma B16F0 tumours; 24 h after i.v. injection
  % ID/g (tumour): 6.8 ± 1.7 % ID/g
Melanoma B16F0 tumours; 72 h after i.v. injection
  % ID/g (tumour): 3.8 ± 0.7 % ID/g
Melanoma B16F0 tumours; 5 d after i.v. injection
  % ID/g (tumour): 2.7 ± 0.3 % ID/g
Melanoma B16F0 tumours; 7 d after i.v. injection
  % ID/g (tumour): 1.5 ± 0.2 % ID/g
Melanoma B16F0 tumours; 10 d after i.v. injection
  % ID/g (tumour): 0.8 ± 0.3 % ID/g
Melanoma B16F0 tumours; 14 d after i.v. injection
  % ID/g (tumour): 0.3 ± 0.01 % ID/g

## CCN(CCNC(=O)c1cnc2cc([125I])ccc2n1)CCOCCOCCOCCF.Cl.Cl [[^125I]3]
Melanoma B16F0 tumours; 1 h after i.v. injection
  % ID/g (tumour): 11.7 ± 2.2 % ID/g
Melanoma B16F0 tumours; 3 h after i.v. injection
  % ID/g (tumour): 12.1 ± 1.7 % ID/g
Melanoma B16F0 tumours; 6 h after i.v. injection
  % ID/g (tumour): 12.1 ± 1.9 % ID/g
Melanoma B16F0 tumours; 24 h after i.v. injection
  % ID/g (tumour): 12.4 ± 2.3 % ID/g
Melanoma B16F0 tumours; 72 h after i.v. injection
  % ID/g (tumour): 8.6 ± 3.6 % ID/g
Melanoma B16F0 tumours; 5 d after i.v. injection
  % ID/g (tumour): 5.8 ± 2.4 % ID/g
Melanoma B16F0 tumours; 7 d after i.v. injection
  % ID/g (tumour): 2.7 ± 0.8 % ID/g
Melanoma B16F0 tumours; 10 d after i.v. injection
  % ID/g (tumour): 1.3 ± 0.4 % ID/g
Melanoma B16F0 tumours; 14 d after i.v. injection
  % ID/g (tumour): 0.6 ± 0.3 % ID/g

— patent US20150079000A1, “Labelled Quinoxaline Derivatives as Multimodal Radiopharmaceuticals and Their Precursors” (INSTITUT NATIONAL DE LA SANTET DE LA RECHERCHE MEDICALE, priority 2012, published 2015)
